In patent US20250230193A1, “CYCLIC COMPOUND HAVING SELECTIVE KRAS INHIBITORY EFFECT ON HRAS AND NRAS” (CHUGAI SEIYAKU KABUSHIKI KAISHA, priority 2022, published 2025):
*1 amine or outer side, *2 acyl side, *3 side chain or, on linkers, in order; H or OH if unused. Where a SMILES comes first, the peptide text is derived from it. Bridges are numbered along the chain shown (N, C = ends). [ ]: non-standard residue; d: D form. The star is where a group is joined. hPhe(3-Cl-4-CF3) = N[C@@H](CCc1ccc(C(F)(F)F)c(Cl)c1)C(=O)O; NEtPhe(4-CF3) = CCN[C@@H](Cc1ccc(C(F)(F)F)cc1)C(=O)O; NEtPhe(4-Me) = CCN[C@@H](Cc1ccc(C)cc1)C(=O)O; NMeAbu(4,4,4-F3) = CN[C@@H](CC(F)(F)F)C(=O)O; NMePhe(4-Me) = CN[C@@H](Cc1ccc(C)cc1)C(=O)O; X30 = CCN([C@H](C(=O)[*:2])C1CCCC1)[*:1]; NMeGly(cPent) = CN[C@H](C(=O)O)C1CCCC1; Hyp = O=C(O)[C@@H]1C[C@@H](O)CN1; NMeF = CN[C@@H](Cc1ccccc1)C(=O)O; NMeD = CN[C@@H](CC(=O)O)C(=O)O; NMeL = CN[C@@H](CC(C)C)C(=O)O; NMeS = CN[C@@H](CO)C(=O)O; Morpholide = C1CN(*)CCO1; NMeA = CN[C@@H](C)C(=O)O; Ac5c = NC1(C(=O)O)CCCC1; NEtG = CCNCC(=O)O; Sar = CNCC(=O)O

Assays:
[1] = target: GDP-bound NRAS wild-type protein (Homo sapiens, UniProt P01111); experiment: Binding to NRAS by surface plasmon resonance (SPR), Single Cycle Kinetics; details: KD ratio NRAS/KRAS, SPR
GDP-bound NRAS wild-type protein, sequence (P01111 whole entry): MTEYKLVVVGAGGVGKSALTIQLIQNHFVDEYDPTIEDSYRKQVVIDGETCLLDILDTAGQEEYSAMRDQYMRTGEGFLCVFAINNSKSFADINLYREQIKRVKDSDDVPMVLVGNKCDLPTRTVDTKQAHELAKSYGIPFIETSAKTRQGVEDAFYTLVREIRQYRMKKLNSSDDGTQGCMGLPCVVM

[2] = target: GDP-bound HRAS wild-type protein (Homo sapiens, UniProt P01112); experiment: Binding to HRAS by surface plasmon resonance (SPR), Single Cycle Kinetics; details: KD ratio HRAS/KRAS, SPR
GDP-bound HRAS wild-type protein, sequence (P01112 whole entry): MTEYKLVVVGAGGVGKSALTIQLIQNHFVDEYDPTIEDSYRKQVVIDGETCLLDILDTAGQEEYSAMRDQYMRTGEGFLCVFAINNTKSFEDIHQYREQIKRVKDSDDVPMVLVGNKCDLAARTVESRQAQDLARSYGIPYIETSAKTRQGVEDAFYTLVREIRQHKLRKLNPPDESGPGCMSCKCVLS

| Compound | NRAS/KRAS (ratio of KD for GDP-bound NRAS wild-type to KD for KRAS) [1] | HRAS/KRAS (ratio of KD for GDP-bound HRAS wild-type to KD for KRAS) [2] |
| --- | --- | --- |
| CC[C@H](C)[C@@H]1NC(=O)[C@H](CC(C)C)N(C)C(=O)C[C@@H](C(=O)N2CCOCC2)N(C)C(=O)[C@H](C2CCCC2)N(C)C(=O)C2(CCCC2)NC(=O)[C@@H]2CCCN2C(=O)[C@H](CCc2ccc(C(F)(F)F)c(Cl)c2)NC(=O)CN(C)C(=O)[C@H](Cc2ccc(C)cc2)N(CC)C(=O)CN(C)C(=O)CN(C)C1=O [PP0022] ([NMeL]I[Sar][Sar][NEtPhe(4-Me)][Sar][hPhe(3-Cl-4-CF3)]P[Ac5c][NMeGly(cPent)][NMeD]-Morpholide; lactam N-11) | B (a compound having 3 or more and less than 10 is denoted as B) | C (A compound having a KD ratio of 0.1 or more and less than 3 is denoted as C) |
| CC[C@H](C)[C@@H]1NC(=O)[C@H](CC(C)C)N(C)C(=O)C[C@@H](C(=O)N2CCOCC2)N(C)C(=O)[C@H](C2CCCC2)N(C)C(=O)C2(CCCC2)NC(=O)[C@@H]2CCCN2C(=O)[C@H](CCc2ccc(C(F)(F)F)c(Cl)c2)NC(=O)CN(C)C(=O)[C@H](Cc2ccc(C(F)(F)F)cc2)N(CC)C(=O)CN(C)C(=O)CN(C)C1=O [PP0023] ([NMeL]I[Sar][Sar][NEtPhe(4-CF3)][Sar][hPhe(3-Cl-4-CF3)]P[Ac5c][NMeGly(cPent)][NMeD]-Morpholide; lactam N-11) | B (a compound having 3 or more and less than 10 is denoted as B) | C (A compound having a KD ratio of 0.1 or more and less than 3 is denoted as C) |
| CC[C@H](C)[C@@H]1NC(=O)[C@H](CC(C)C)N(C)C(=O)C[C@@H](C(=O)N2CCOCC2)N(C)C(=O)[C@H](C2CCCC2)N(C)C(=O)C2(CCCC2)NC(=O)[C@@H]2CCCN2C(=O)[C@H](CCc2ccc(C(F)(F)F)c(Cl)c2)NC(=O)CN(C)C(=O)[C@H](C2CCCC2)N(CC)C(=O)CN(C)C(=O)CN(C)C1=O [PP0024] ([NMeL]I[Sar][Sar][X30][Sar][hPhe(3-Cl-4-CF3)]P[Ac5c][NMeGly(cPent)][NMeD]-Morpholide; lactam N-11) | B (a compound having 3 or more and less than 10 is denoted as B) | C (A compound having a KD ratio of 0.1 or more and less than 3 is denoted as C) |
| CC[C@H](C)[C@@H]1NC(=O)[C@H](CC(C)C)N(C)C(=O)C[C@@H](C(=O)N2CCOCC2)N(C)C(=O)[C@H](C2CCCC2)N(C)C(=O)C2(CCCC2)NC(=O)[C@@H]2CCCN2C(=O)[C@H](CCc2ccc(C(F)(F)F)c(Cl)c2)NC(=O)CN(CC)C(=O)[C@H](Cc2ccc(C)cc2)N(C)C(=O)CN(C)C(=O)CN(C)C1=O [PP0025] ([NMeL]I[Sar][Sar][NMePhe(4-Me)][NEtG][hPhe(3-Cl-4-CF3)]P[Ac5c][NMeGly(cPent)][NMeD]-Morpholide; lactam N-11) | C (A compound having a KD ratio of 0.1 or more and less than 3 is denoted as C) | C (A compound having a KD ratio of 0.1 or more and less than 3 is denoted as C) |
| CC[C@H](C)[C@@H]1NC(=O)[C@H](CC(C)C)N(C)C(=O)C[C@@H](C(=O)N2CCOCC2)N(C)C(=O)[C@H](C2CCCC2)N(C)C(=O)C2(CCCC2)NC(=O)[C@@H]2CCCN2C(=O)[C@H](CCc2ccc(C(F)(F)F)c(Cl)c2)NC(=O)CN(C)C(=O)[C@H](Cc2ccc(C)cc2)N(CC)C(=O)CN(CC)C(=O)CN(C)C1=O [PP0027] ([NMeL]I[Sar][NEtG][NEtPhe(4-Me)][Sar][hPhe(3-Cl-4-CF3)]P[Ac5c][NMeGly(cPent)][NMeD]-Morpholide; lactam N-11) | C (A compound having a KD ratio of 0.1 or more and less than 3 is denoted as C) | C (A compound having a KD ratio of 0.1 or more and less than 3 is denoted as C) |
| CC[C@H](C)[C@@H]1NC(=O)[C@H](CC(C)C)N(C)C(=O)C[C@@H](C(=O)N2CCOCC2)N(C)C(=O)[C@H](C2CCCC2)N(C)C(=O)C2(CCCC2)NC(=O)[C@@H]2CCCN2C(=O)[C@H](CCc2ccc(C(F)(F)F)c(Cl)c2)NC(=O)CN(CC)C(=O)[C@H](Cc2ccc(C)cc2)N(CC)C(=O)CN(C)C(=O)CN(C)C1=O [PP0028] ([NMeL]I[Sar][Sar][NEtPhe(4-Me)][NEtG][hPhe(3-Cl-4-CF3)]P[Ac5c][NMeGly(cPent)][NMeD]-Morpholide; lactam N-11) | C (A compound having a KD ratio of 0.1 or more and less than 3 is denoted as C) | C (A compound having a KD ratio of 0.1 or more and less than 3 is denoted as C) |
| CC[C@H](C)[C@@H]1NC(=O)[C@H](CC(C)C)N(C)C(=O)C[C@@H](C(=O)N2CCOCC2)N(C)C(=O)[C@H](C2CCCC2)N(C)C(=O)C2(CCCC2)NC(=O)[C@@H]2CCCN2C(=O)[C@H](CCc2ccc(C(F)(F)F)c(Cl)c2)NC(=O)CN(CC)C(=O)[C@H](Cc2ccc(C)cc2)N(C)C(=O)CN(CC)C(=O)CN(C)C1=O [PP0029] ([NMeL]I[Sar][NEtG][NMePhe(4-Me)][NEtG][hPhe(3-Cl-4-CF3)]P[Ac5c][NMeGly(cPent)][NMeD]-Morpholide; lactam N-11) | C (A compound having a KD ratio of 0.1 or more and less than 3 is denoted as C) | C (A compound having a KD ratio of 0.1 or more and less than 3 is denoted as C) |
| CC[C@H](C)[C@@H]1NC(=O)[C@H](CC(C)C)N(C)C(=O)C[C@@H](C(=O)N2CCOCC2)N(C)C(=O)[C@H](C2CCCC2)N(C)C(=O)C2(CCCC2)NC(=O)[C@@H]2CCCN2C(=O)[C@H](CCc2ccc(C(F)(F)F)c(Cl)c2)NC(=O)CN(CC)C(=O)[C@H](Cc2ccc(C)cc2)N(CC)C(=O)CN(CC)C(=O)CN(C)C1=O [PP0030] ([NMeL]I[Sar][NEtG][NEtPhe(4-Me)][NEtG][hPhe(3-Cl-4-CF3)]P[Ac5c][NMeGly(cPent)][NMeD]-Morpholide; lactam N-11) | C (A compound having a KD ratio of 0.1 or more and less than 3 is denoted as C) | C (A compound having a KD ratio of 0.1 or more and less than 3 is denoted as C) |
| CC[C@H](C)[C@@H]1NC(=O)[C@H](C)N(C)C(=O)C[C@@H](C(=O)N2CCOCC2)N(C)C(=O)[C@H](C2CCCC2)N(C)C(=O)C2(CCCC2)NC(=O)[C@@H]2CCCN2C(=O)[C@H](CCc2ccc(C(F)(F)F)c(Cl)c2)NC(=O)CN(C)C(=O)[C@H](Cc2ccc(C)cc2)N(CC)C(=O)CN(C)C(=O)CN(C)C1=O [PP0031] ([NMeA]I[Sar][Sar][NEtPhe(4-Me)][Sar][hPhe(3-Cl-4-CF3)]P[Ac5c][NMeGly(cPent)][NMeD]-Morpholide; lactam N-11) | B (a compound having 3 or more and less than 10 is denoted as B) | C (A compound having a KD ratio of 0.1 or more and less than 3 is denoted as C) |
| CC[C@H](C)[C@@H]1NC(=O)[C@H](CC(F)(F)F)N(C)C(=O)C[C@@H](C(=O)N2CCOCC2)N(C)C(=O)[C@H](C2CCCC2)N(C)C(=O)C2(CCCC2)NC(=O)[C@@H]2CCCN2C(=O)[C@H](CCc2ccc(C(F)(F)F)c(Cl)c2)NC(=O)CN(C)C(=O)[C@H](Cc2ccc(C)cc2)N(CC)C(=O)CN(C)C(=O)CN(C)C1=O [PP0032] ([NMeAbu(4,4,4-F3)]I[Sar][Sar][NEtPhe(4-Me)][Sar][hPhe(3-Cl-4-CF3)]P[Ac5c][NMeGly(cPent)][NMeD]-Morpholide; lactam N-11) | C (A compound having a KD ratio of 0.1 or more and less than 3 is denoted as C) | C (A compound having a KD ratio of 0.1 or more and less than 3 is denoted as C) |
| CC[C@H](C)[C@@H]1NC(=O)[C@H](CC(C)C)N(C)C(=O)C[C@@H](C(=O)N2CCOCC2)N(C)C(=O)[C@H](C2CCCC2)N(C)C(=O)C2(CCCC2)NC(=O)[C@@H]2CCCN2C(=O)[C@H](CCc2ccc(C(F)(F)F)c(Cl)c2)NC(=O)CN(C)C(=O)[C@H](Cc2ccc(C)cc2)N(C)C(=O)[C@H](CO)N(C)C(=O)CN(C)C1=O [PP0037] ([NMeL]I[Sar][NMeS][NMePhe(4-Me)][Sar][hPhe(3-Cl-4-CF3)]P[Ac5c][NMeGly(cPent)][NMeD]-Morpholide; lactam N-11) | C (A compound having a KD ratio of 0.1 or more and less than 3 is denoted as C) | C (A compound having a KD ratio of 0.1 or more and less than 3 is denoted as C) |
| CC[C@H](C)[C@@H]1NC(=O)[C@H](CC(C)C)N(C)C(=O)C[C@@H](C(=O)N2CCOCC2)N(C)C(=O)[C@H](C2CCCC2)N(C)C(=O)C2(CCCC2)NC(=O)[C@@H]2CCCN2C(=O)[C@H](CCc2ccc(C(F)(F)F)c(Cl)c2)NC(=O)CN(C)C(=O)[C@H](Cc2ccccc2)N(C)C(=O)CN(C)C(=O)CN(C)C1=O [PP0039] ([NMeL]I[Sar][Sar][NMeF][Sar][hPhe(3-Cl-4-CF3)]P[Ac5c][NMeGly(cPent)][NMeD]-Morpholide; lactam N-11) | C (A compound having a KD ratio of 0.1 or more and less than 3 is denoted as C) | C (A compound having a KD ratio of 0.1 or more and less than 3 is denoted as C) |
| CC[C@H](C)[C@@H]1NC(=O)[C@H](CC(C)C)N(C)C(=O)C[C@@H](C(=O)N2CCOCC2)N(C)C(=O)[C@H](C2CCCC2)N(C)C(=O)C2(CCCC2)NC(=O)[C@@H]2C[C@@H](O)CN2C(=O)[C@H](CCc2ccc(C(F)(F)F)c(Cl)c2)NC(=O)CN(C)C(=O)[C@H](Cc2ccc(C)cc2)N(CC)C(=O)CN(C)C(=O)CN(C)C1=O [PP0041] ([NMeL]I[Sar][Sar][NEtPhe(4-Me)][Sar][hPhe(3-Cl-4-CF3)][Hyp][Ac5c][NMeGly(cPent)][NMeD]-Morpholide; lactam N-11) | B (a compound having 3 or more and less than 10 is denoted as B) | C (A compound having a KD ratio of 0.1 or more and less than 3 is denoted as C) |
